Results: patent US20240358692A1, “TREATMENT OF SCLERODERMA” (Aisa Pharma, Inc., priority 2023, published 2024)

Experiments:
[1] = tested on: participants with SSc-RP; assay: SHAQ - Standard Disability Index; format: in vivo, human; set-up: key to SHAQ Standard Disability Index, In-Clinic Visit (Day 12), Mean / SHAQ Standard Disability Index, In-Clinic Visit (Day 12), Median / SHAQ Standard Disability Index, Day 12, Mean / SHAQ Standard Disability Index, Day 12, Median: 0 = without any difficulty to 3 = unable to do; conditions: Tadalafil 5 mg
From the text: The standard, validated, patient reported outcome measures tool for SSc patients, the Scleroderma Health Assessment Questionnaire (SHAQ), will be used to assess the participant qualify of life. Details are attached in the Appendix. The participant quality of life will be scored, and a disability index calculated for each questionnaire completed by the patient at Screening and each in-clinic visit. The absolute change in participant quality of life from baseline to the end of each dosing period will be calculated similar to frequency data as before.
The SHAQ is used to calculate a Disability Index to assess the participant qualify of life. The eight categories assessed by the Disability Index are 1) dressing and grooming, 2) arising, 3) eating, 4) walking, 5) hygiene, 6) reach, 7) grip, and 8) common daily activities. For each of these categories, patients report the amount of difficulty they have in performing two or three specific activities.
There are four possible responses for the Disability Index questions: • Without any difficulty=0 • With some difficulty=1 • With much difficulty=2 • Unable to do=3 • The highest score reported by the patient for any component question of the eight categories determines the score for that category. • If a component question is left blank or the response is too ambiguous to assign a score, then the score for that category is determined by the remaining completed question(s). • If all component questions are blank or if more than one answer is given, then follow up with the respondent is required. • If the respondent's mark is between the response columns, then move it to the closest one. If it's directly between the two, move it to the higher one.
This question results in a new set of category scores that are computed by adjusting the score for each category, if necessary, based on the patient's use of an aid or device or assistance for that category. If either devices and/or help from another person are checked for a category, the score is set to “2”, unless the score is already “3” (i.e., scores of “0” or “1” are increased to “2”). For example, if the highest score for the dressing category is “1”, and the patient says they use a device for dressing, the computed category score would be “2”. The sum of the computed categories scores is then calculated and divided by the number of categories answered. This gives a score in the 0 to 3 range.

[2] = tested on: participants with SSc-RP; format: in vivo; conditions: tadalafil monotherapy group
From the text: Treatment-emergent AEs (TEAEs) are defined as AEs that occur or worsen after the dose of study drug. If the timing of the start of an AE could not be determined unambiguously from the start or end dates provided, it will be assumed to be a TEAE. An AE is considered related if the relationship to either of the study drug has been indicated as possibly or probably or definite related by the investigator. An AE leading to study withdrawal is defined as an AE that cause a subject early terminated from the study. AEs will be identified as emerging in the following parts: • TEAEs for Part A will be those that started during Part A (i.e., from the first dose in Part A to end of follow up of Part A) • TEAEs for Part B will be those that started during Part B (i.e., from the first dose in Part B to end of follow-up of Part B).
In this study, AEs and SAEs were reported for all participants from the time of randomization until the completion of the Follow-up/EOS visit. Adverse events that were ongoing at the EOS visit were marked as Not Recovered/Not resolved on the AE eCRF page (see Section 9.4.4). The Investigator did full AE review during in-clinic visit. All spontaneously volunteered and enquired for, as well as observed AEs, were recorded in the participant's medical records and the eCRF.
Severity of AEs were graded by the Investigator as one of: • Mild (Grade 1): A type of AE that is usually transient and may require only minimal treatment or therapeutic intervention.

[3] = Day 12, PP Population Part A, sensitivity analysis

CN1CC(=O)N2[C@H](c3ccc4c(c3)OCO4)c3[nH]c4ccccc4c3C[C@@H]2C1=O [Tadalafil]
SHAQ Standard Disability Index, In-Clinic Visit (Day 12), Mean [1, 3]: 0.531
SHAQ Standard Disability Index, In-Clinic Visit (Day 12), Median [1, 3]: 0.563
SHAQ Standard Disability Index, Change from Baseline, Max ([1]; SSc patients, PP, Part A): 0.00
SHAQ Standard Disability Index, Change from Baseline, Min ([1]; SSc patients, PP, Part A): −0.13,
SHAQ Standard Disability Index, Change from Baseline, Q1 ([1]; SSc patients, PP, Part A): −0.125,
SHAQ Standard Disability Index, Change from Baseline, Q3 ([1]; SSc patients, PP, Part A): 0.000
SHAQ Standard Disability Index, Day 12, Max ([1]; SSc patients, PP, Part A): 1.00
SHAQ Standard Disability Index, Day 12, Min ([1]; SSc patients, PP, Part A): 0.00,
SHAQ Standard Disability Index, Day 12, Q1 ([1]; SSc patients, PP, Part A): 0.250,
SHAQ Standard Disability Index, Day 12, Q3 ([1]; SSc patients, PP, Part A): 0.813
SHAQ Standard Disability Index, Percent Change from Baseline, Max ([1]; SSc patients, PP, Part A): 0.0
SHAQ Standard Disability Index, Percent Change from Baseline, Min ([1]; SSc patients, PP, Part A): −16.7,
SHAQ Standard Disability Index, Percent Change from Baseline, Q1 ([1]; SSc patients, PP, Part A): −16.67,
SHAQ Standard Disability Index, Percent Change from Baseline, Q3 ([1]; SSc patients, PP, Part A): 0.00
Worst AE (group) [2]: Worst AE in tadalafil
